Experimental data from ChEMBL document CHEMBL1201862, “PubChem BioAssay data set” (2004).
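48-hour exposure; five concentrations; linearly interpolated endpoints. At the GI50, growth is halved.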 The source made the active and inactive calls. No stated cut-off is given here; in the data, active = GI50 up to about 1.1 µM and inactive = higher.

Experiments:
Assay in all cases: NCI anticancer screen, dose series, 48 h
A549 = tested on: A549
CCRF-CEM = tested on: CCRF-CEM
COLO 205 = tested on: COLO 205
HOP-92 = tested on: HOP-92
M14 = tested on: M14
MOLT-4 = tested on: MOLT-4
NCI-H23 = tested on: NCI-H23
NCI-H522 = tested on: NCI-H522
OVCAR-3 = tested on: OVCAR-3
OVCAR-8 = tested on: OVCAR-8
RXF 393 = tested on: RXF 393
SF-295 = tested on: SF-295
SK-MEL-28 = tested on: SK-MEL-28
SK-OV-3 = tested on: SK-OV-3
SNB-19 = tested on: SNB-19
UACC-257 = tested on: UACC-257
UO-31 = tested on: UO-31
NCI/ADR-RES = tested on: NCI/ADR-RES
PC-3 = tested on: PC-3

## Cc1ccccc1NC(=O)c1ccc([N+](=O)[O-])cc1
A549
  GI50: > 100 µM (inactive)
CCRF-CEM
  GI50: > 100 µM (inactive)
COLO 205
  GI50: > 100 µM (inactive)
HOP-92
  GI50: > 100 µM (inactive)
M14
  GI50: > 100 µM (inactive)
MOLT-4
  GI50: > 100 µM (inactive)
NCI-H23
  GI50: > 100 µM (inactive)
NCI-H522
  GI50: 28 µM (inactive)
OVCAR-3
  GI50: 53.5 µM (inactive)
OVCAR-8
  GI50: > 100 µM (inactive)
RXF 393
  GI50: 15.8 µM (inactive)
SF-295
  GI50: > 100 µM (inactive)
SK-MEL-28
  GI50: > 100 µM (inactive)
SK-OV-3
  GI50: > 100 µM (inactive)
SNB-19
  GI50: > 100 µM (inactive)
UACC-257
  GI50: > 100 µM (inactive)
UO-31
  GI50: > 100 µM (inactive)

## O=C1C(c2ccccc2)=C(O)c2cccc3cccc1c23
A549
  GI50: > 100 µM (inactive)
CCRF-CEM
  GI50: > 100 µM (inactive)
COLO 205
  GI50: > 100 µM (inactive)
HOP-92
  GI50: 29 µM (inactive)
M14
  GI50: > 100 µM (inactive)
MOLT-4
  GI50: > 100 µM (inactive)
NCI-H23
  GI50: > 100 µM (inactive)
NCI-H522
  GI50: > 100 µM (inactive)
OVCAR-3
  GI50: 47.4 µM (inactive)
OVCAR-8
  GI50: > 100 µM (inactive)
RXF 393
  GI50: > 100 µM (inactive)
SF-295
  GI50: > 100 µM (inactive)
SK-MEL-28
  GI50: > 100 µM (inactive)
SK-OV-3
  GI50: > 100 µM (inactive)
SNB-19
  GI50: > 100 µM (inactive)
UACC-257
  GI50: > 100 µM (inactive)
UO-31
  GI50: > 100 µM (inactive)

## CC1(CO)C(O)CCC2(C)C1C(O)CC1CC3CC12CCC3(O)CO (stereo unspecified)
A549
  GI50: > 225 µM (inactive)
CCRF-CEM
  GI50: 138 µM (inactive)
COLO 205
  GI50: > 225 µM (inactive)
HOP-92
  GI50: > 225 µM (inactive)
MOLT-4
  GI50: > 96.6 µM (inactive)
NCI-H23
  GI50: > 225 µM (inactive)
NCI-H522
  GI50: > 225 µM (inactive)
NCI/ADR-RES
  GI50: > 225 µM (inactive)
OVCAR-3
  GI50: > 225 µM (inactive)
OVCAR-8
  GI50: > 213 µM (inactive)
RXF 393
  GI50: > 225 µM (inactive)
SF-295
  GI50: 91.2 µM (inactive)
SK-MEL-28
  GI50: > 225 µM (inactive)
SK-OV-3
  GI50: > 225 µM (inactive)
SNB-19
  GI50: > 225 µM (inactive)
UACC-257
  GI50: > 225 µM (inactive)
UO-31
  GI50: > 217 µM (inactive)

## COC1CC(C)C(OC)c2cc(O)cc(c2O)NC(=O)/C(C)=C/C=C\C(C)C(OC(N)=O)/C(C)=C\C(C)C1OC (stereo unspecified)
A549
  GI50: 2.51 µM (inactive)
CCRF-CEM
  GI50: 0.192 µM (active)
COLO 205
  GI50: 0.0516 µM (active)
HOP-92
  GI50: 0.347 µM (active)
M14
  GI50: 1.02 µM (active)
MOLT-4
  GI50: 0.083 µM (active)
NCI-H522
  GI50: 0.0863 µM (active)
OVCAR-8
  GI50: 7.28 µM (inactive)
PC-3
  GI50: 0.228 µM (active)
RXF 393
  GI50: 0.316 µM (active)
SF-295
  GI50: 1.24 µM (inactive)
SK-MEL-28
  GI50: 0.336 µM (active)
SK-OV-3
  GI50: 0.292 µM (active)
SNB-19
  GI50: 3.78 µM (inactive)
UACC-257
  GI50: 0.397 µM (active)
UO-31
  GI50: 7.11 µM (inactive)

## O=C(O)Cc1ccccc1CCc1ccccc1Cl
A549
  GI50: > 100 µM (inactive)
CCRF-CEM
  GI50: > 100 µM (inactive)
COLO 205
  GI50: > 100 µM (inactive)
HOP-92
  GI50: > 100 µM (inactive)
M14
  GI50: > 100 µM (inactive)
MOLT-4
  GI50: > 100 µM (inactive)
NCI-H23
  GI50: > 100 µM (inactive)
NCI-H522
  GI50: > 100 µM (inactive)
OVCAR-3
  GI50: 53.2 µM (inactive)
OVCAR-8
  GI50: > 100 µM (inactive)
RXF 393
  GI50: > 100 µM (inactive)
SF-295
  GI50: > 100 µM (inactive)
SK-MEL-28
  GI50: > 100 µM (inactive)
SK-OV-3
  GI50: > 100 µM (inactive)
SNB-19
  GI50: > 100 µM (inactive)
UACC-257
  GI50: > 100 µM (inactive)
UO-31
  GI50: > 100 µM (inactive)

## CCCCCNC(=O)CCCCCCCCCCCNC(=O)CCCCCCCCCCN1C=CC(=CC=C2C=CC(=O)C=C2)C=C1
A549
  GI50: > 100 µM (inactive)
CCRF-CEM
  GI50: 15.1 µM (inactive)
COLO 205
  GI50: 15.3 µM (inactive)
HOP-92
  GI50: 14.7 µM (inactive)
M14
  GI50: > 100 µM (inactive)
MOLT-4
  GI50: 29 µM (inactive)
NCI-H23
  GI50: 28.2 µM (inactive)
NCI-H522
  GI50: 32.4 µM (inactive)
OVCAR-3
  GI50: 41.3 µM (inactive)
OVCAR-8
  GI50: 55.7 µM (inactive)
RXF 393
  GI50: > 100 µM (inactive)
SF-295
  GI50: 71.4 µM (inactive)
SK-MEL-28
  GI50: > 100 µM (inactive)
SK-OV-3
  GI50: > 100 µM (inactive)
SNB-19
  GI50: 34.8 µM (inactive)
UACC-257
  GI50: 16.6 µM (inactive)
UO-31
  GI50: > 100 µM (inactive)
